Measured values from article PMC6430500, “3-Fluoro-4-hydroxyprolines: Synthesis, Conformational Analysis, and Stereoselective Recognition by the VHL E3 Ubiquitin Ligase for Targeted Protein Degradation” (Journal of the American Chemical Society, 2018).
Read-outs that look alike come from different tables or passages of the source.

Columns and labels:
[1] = target: T1, VBC (Homo sapiens, UniProt P40337); experiment: ITC of PROTACs, binary complex PROTAC–VBC; type: binding; settings: for ΔG / ΔH / –TΔS / Kd: PROTAC in cell, VBC in syringe; for Kd: mean ± SEM
T1 construct: VHL (54–213), ElonginC (17–112) and; His6 (N, cleaved yes); made in house; host or cells: Escherichia coli BL21(DE3)
Excerpt: (§1) structure (C2 R, C3 S, C4 R) assumed on the basis of unchanging stereogenic centres in the synthesis.
(§2) Final R(F) = 0.033, wR(F 2) = 0.085 for 275 parameters and 3901 reflections with I > 2σ(I) (corresponding R-values based on all 4067 reflections = 0.035 and 0.086, respectively), CCDC […]
(§3) Protein expression and purification.
(§4) Wild-type versions of human proteins VHL (UniProt accession number: P40337), ElonginC […]
(§5) expression. For expression of VBC, N-terminally His6-tagged VHL (54–213), ElonginC (17–112) and ElonginB (1–104) were co- expressed in Escherichia coli BL21(DE3) at 24 °C for 16 h using 0.3 mM isopropyl β-D -1-thiogalactopyranoside (IPTG). E. coli cells were lysed using a pressure cell homogenizer (Stansted Fluid Power) and lysate clarified by centrifugation. His6-tagged VCB was purified on a HisTrap FF affinity column (GE Healthcare) by elution with an imidazole gradient. The His6tag was removed using TEV protease and the untagged complex dialyzed into low -concentration imidazole buffer. VCB was then flowed through the HisTrap FF column a second time, allowing impurities to bind, as the complex eluted without binding. VCB was then additionally purified by anion exchange and size-exclusion chromatography using ResourceQ and Superdex-75 columns (GE Healthcare), respectively. The final purified complex was stored in 20 mM Bis–Tris, pH 7, 150 mM sodium chloride and 1 mM dithiothreitol (DTT). Brd2BD1 (71–194), and Brd4BD2 (333–460) were expressed with an N-terminal His6 tag in E. coli BL21(DE3) at 18 °C for 20 h using 0.2 mM IPTG.
(§6) His6-tagged BDs were purified on nickel Sepharose 6 fast flow beads (GE Healthcare) by elution with increasing concentrations of imidazole. For crystallography the His6-tagged BD was cleaved with TEV protease and dialyzed into low-concentration imidazole buffer. The BD was then flowed over the nickel beads a second time to remove impurities and protease. BDs were then additionally purified by size-exclusion chromatography using a Superdex-75 column. The BDs were purified by size-exclusion chromatography using a Superdex-75 column. The final purified proteins were stored in 20 mM 4-(2-hydroxyethyl)-1-piperazineethanesulfonic acid (HEPES), pH 7.5, 150 mM sodium chloride and 1 mM DTT. All chromatography purification steps were performed using Äkta FPLC purification systems (GE Healthcare) or glass econo-columns (Bio-Rad) at room temperature.
(§7) Isothermal titration calorimetry (ITC) of peptides and ligands
(§8) Titrations were performed on an ITC200 micro-calorimeter (GE Healthcare). The peptides were dissolved in buffer (20 mM Bis–Tris propane, 100 mM NaCl, 1 mM tris(2-carboxyethyl)phosphine […]
(§9) (TCEP), pH 7.4) at 100 µM. The compounds were titrated against 10 µM VBC complex, equilibrated in the same buffer. The titrations consisted of 20 injections of 2 µL of peptide solution at a rate of 0.5 µL/s at 120 s time intervals. An initial injection of ligand (0.4 µL) was made and discarded during data analysis. All experiments were performed at 25°C while stirring at 650 rpm.
(§10) Ligands 14a- b were diluted from DMSO stock solution to 300 µM in buffer (20 mM Bis-Tris propane, 150 mM NaCl, 1 mM TCEP, pH 7.4). The compounds were titrated against 30 µM VBC complex, equilibrated in the same buffer. The final concentration of DMSO in each experiment was […]
(§11) The data were fitted to a single-binding-site model using the MicroCal PEAQ-ITC analysis software provided by the manufacturer to obtain the stoichiometry n, the dissociation constant K d, and the enthalpy of binding ΔH . The reported values are the mean ± s.e.m. from independent measurements.
(§12) Isothermal titration calorimetry (ITC)of PROTACs
(§13) The titrations were all performed as reverse mode (protein in syringe, ligand in cell) and consisted of 19 injections of 2 µl protein solution (20 mM Bis–Tris propane, 100 mM NaCl, 1 mM tris(2-carboxyethyl)phosphine (TCEP), pH 7.4) at a rate of 0.5 µl/s at 120 s time intervals. An initial injection (0.4 µl) was made and discarded during data analysis. […]

[2] = target: T2, VBC and Brd4BD2 (Homo sapiens, UniProt O60885+P40337); experiment: ITC ternary complex formation, VBC titrated into PROTAC:Brd4BD2; type: binding; settings: for α (cooperativity): Kd binary,VBC/Kd ternary; for α (cooperativity) / ΔΔG: Brd4BD2; for Kd / ΔG / ΔH / –TΔS: PROTAC:Brd4BD2 in cell, VBC in syringe; for ΔΔG: ternary vs binary
T2 construct: VHL (54–213), ElonginC (17–112) and; Brd4BD2 (333–460); His6 (N, cleaved yes); made in house; host or cells: E. coli BL21(DE3)
Excerpt: as §1, §2, §3, §4, §5, §6, §7, §8, §9, §10, §11, §12, §13

[3] = tested on: MV4;11 cells; experiment: CellTiter-Glo cell viability assay; type: cell-based; settings: for EC50: MV4-11, 72 h
Procedure: MV4;11 cells (15000 cells per well) were dosed for 72 h with compounds serially diluted (1:3) on a clear-bottom 384-well plate with a final concentration of 0.05% (v/v) DMSO. After treatment, Promega CellTiter-Glo luminescent cell viability assay (G7572) was added to the cells according to the manufacturer instructions. The signal from each well was recorded on a BM G Labtech Pherastar luminescence plate reader with recommended settings.
Normalized data were analyzed and plotted with Graphpad Prism software in the ‘log(inhibitor) vs. response -- Variable slope (four parameters)’ module. EC50 values of each test compound were […]

ΔG [1]	ΔH [1]	–TΔS [1]	Kd [1]	α (cooperativity) [2]	Kd [2]	ΔG [2]	ΔH [2]	–TΔS [2]	ΔΔG [2]	pEC50, antiproliferative activity ([3]; 72 h)	EC50 ([3]; Homo sapiens, read-out: EC50, antiproliferative activity)	EC50 ([3]; Homo sapiens, read-out: pEC50, antiproliferative activity (converted))	fold weaker ligand for VBC ([1]; 15b compared to 15a)	SMILES	Emax ([3]; Homo sapiens, 72 h, read-out: Emax, maximal response at highest concentration)	antiproliferative effect (in words) ([3]; 72 h, compared to MZ1 or 15a)
-9.01 ± 0.02 kcal/mol	-7.9 ± 0.3 kcal/mol	-1.1 ± 0.2 kcal/mol	0.249 ± 0.006 µM	9.5	0.026 ± 0.005 µM	-10.13 kcal/mol	-10.9 ± 0.7 kcal/mol	-0.6 ± 0.4 kcal/mol	-1.12 kcal/mol	6.5	0.33 µM	0.33 µM	–	Cc1ncsc1-c1ccc(CNC(=O)[C@@H]2[C@@H](F)[C@@H](O)CN2C(=O)[C@@H](NC(=O)COCCOCCOCCNC(=O)C[C@@H]2N=C(c3ccc(Cl)cc3)c3c(sc(C)c3C)-n3c(C)nnc32)C(C)(C)C)cc1 [15a]	92%	–
-8.49 ± 0.07 kcal/mol	-5.0 ± 0.2 kcal/mol	-3.7 ± 0.2 kcal/mol	0.603 ± 0.074 µM	14.5	0.042 ± 0.006 µM	-10.01 kcal/mol	-7.75 kcal/mol	-2.34 kcal/mol	-1.6 ± 0.1 kcal/mol	–	–	–	2.5 fold	Cc1ncsc1-c1ccc(CNC(=O)[C@@H]2[C@H](F)[C@@H](O)CN2C(=O)[C@@H](NC(=O)COCCOCCOCCNC(=O)C[C@@H]2N=C(c3ccc(Cl)cc3)c3c(sc(C)c3C)-n3c(C)nnc32)C(C)(C)C)cc1 [15b]	–	much weaker antiproliferative effect
